Data as given in patent US11116804B2, “Modulation of the gut microbiome to treat mental disorders or diseases of the central nervous system” (Holobiome, Inc., priority 2016, dated 2021).
“Also recorded” adds a separate entry of the source.

Columns and labels:
[1] = tested on: E. gabavorous KLE1738; assay: Growth induction of E. gabavorous by compounds spotted on FAAy plates; assay type: cell-based, Evtepia gabavorous; settings: 5 μL of stock spotted on FAAy plates spread with E. gabavorous, anaerobic, one week
Description: Stocks of each compound (purchased from Sigma, excluding the ATCC Mineral and Vitamin mixes) were prepared dependent on solubility in water at the concentrations shown in FIG. 2G. Five μL of the stocks were then spotted on FAAy plates spread with E. gabavorous, and incubated anaerobically for one week, and any growth was observed.

[2] = in mice; cited from earlier work
[3] = in rodents; cited from earlier work

Row | Structure (SMILES) | growth induction of E. gabavorous by spotted compound [1] | half-life [2] [min] | brain efflux rate relative to influx rate [3] [times]
1 | NCCCC(=O)O [GABA, gamma-aminobutyric acid] | capable of inducing growth of E. gabavorous KLE1738; also recorded: caused growth induction; also recorded: induced growth | 17 | 17
2 | C[C@H](N)C(=O)O [alanine] | only GABA caused growth induction |  | 
3 | NC(=O)CC[C@H](N)C(=O)O [glutamine] | only GABA caused growth induction |  | 
4 | CC(O)C(=O)O (stereo not shown) [lactic acid] | only GABA caused growth induction |  | 
5 | O=C(O)CC(=O)O [malonic acid] | only GABA caused growth induction |  | 
6 | O=C(O)CCC(=O)O [succinic acid] | only GABA caused growth induction |  | 
7 | C[C@@H](O)[C@H](N)C(=O)O [threonine] | only GABA caused growth induction |  | 
8 | CC(C)[C@H](N)C(=O)O [valine] | only GABA caused growth induction |  | 
